{"source": "patent US20150073330A1", "about": "“ALZHEIMER'S DISEASE TREATMENT WITH MULTIPLE THERAPEUTIC AGENTS DELIVERED TO THE OLFACTORY REGION THROUGH A SPECIAL DELIVERY CATHETER AND IONTOPHORESIS” (Wedge Therapeutics, LLC, priority 2012, published 2015)", "key": {"[1]": {"details": "in vivo; cited from earlier work"}, "[2]": {"tested_on": "patients with Lyme disease, senile type dementia and early Alzheimer's disease", "assay": "2-4-dinitrophenol in Lyme disease, senile type dementia and early Alzheimer's disease", "type": "in vivo, human", "details": "minuscule dose", "excerpt": "Exactly how production and aggregation of the beta amyloid peptide gives rise to the pathology of AD even now not known. Accumulation of aggregated amyloid fibrils, which are believed to be the toxic form of the protein responsible for disrupting the cell's calcium ion homeostasis, induces programmed cell death (apoptosis). It known that Aβ selectively builds up in the mitochondria in the cells of Alzheimer's-affected brains, and it inhibits certain enzyme functions and the utilization of glucose by neurons (Chen X, Yan S D. 2006. “Mitochondrial Aβ: a potential cause of metabolic dysfunction in Alzheimer's disease”. IUBMB Life 58 (12): 686-94.). […] We had to discontinue the study due to federal restriction on such use that is not FDA approved."}, "[3]": {"tested_on": "MCF-7 Human Breast Cancer Cells", "details": "MCF-7 cells; cited from earlier work"}, "[4]": {"details": "cited from earlier work"}, "[5]": {"tested_on": "students taking the comprehensive examination and test", "assay": "ORE insulin in students before the comprehensive examination", "type": "in vivo, human", "details": "2-4 IU each side of the nose to the ORE, 1-2 hours before the examination, compared to controls", "description": "In a study of students taking the comprehensive examination and test, we prescribed 2-4 IU insulin instilled on each sides of the nose delivered to the ORE in supine position, 1-2 hours before the examination using our delivery device. […] We are planning an expanded study and to analyze statistically to report its positive significance and its use in public speakers (T. R. Shantha, use of olfactory mucosal insulin to enhance the memory and recall before student examinations, written tests and before presentations in front of audience at meetings. Expanded study-under preparation.)."}, "[6]": {"tested_on": "receptors in the hippocampus and the frontal cortex", "details": "rodent models, intranasal; cited from earlier work"}, "[7]": {"tested_on": "patients with impaired cognition, depression, PTSD, stroke, concussion, brain injury", "assay": "ORE delivery of insulin alone or combined in impaired cognition, depression, PTSD, stroke, concussion and brain injury", "type": "in vivo, human", "details": "olfactory mucosal delivery; declining memory in the aged, Parkinson's, depression of many causes", "quoted_text": "We also provided the home therapy kit with these therapeutic agents and trained them in the method of delivery to ORE, so that they can administer on their own. Some of the patients received hyperbaric oxygen therapy also."}, "[8]": {"tested_on": "adults with AD and amnestic mild cognitive impairment", "details": "cited from earlier work"}, "[9]": {"tested_on": "amyloid beta", "details": "mice, cited from earlier work"}, "[10]": {"details": "cutaneous T-cell lymphoma, 300-400 mg per m^2 per day for eight weeks; cited from earlier work"}, "[11]": {"details": "cited from earlier work", "remark": "listed apart in the source"}, "[12]": {"target": "T1, TNF-alpha (Homo sapiens, UniProt P01375)", "T1 construct": "endogenous in cells; host or cells: AD patients (in vivo)", "T1 sequence (P01375 77-233 limits assumed)": "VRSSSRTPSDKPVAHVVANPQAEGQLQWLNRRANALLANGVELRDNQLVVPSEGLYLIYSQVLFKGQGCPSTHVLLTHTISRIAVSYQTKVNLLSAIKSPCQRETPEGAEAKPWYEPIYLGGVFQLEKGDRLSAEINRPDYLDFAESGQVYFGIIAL", "details": "AD patients; cited from earlier work"}, "[13]": {"target": "T1, TNF-alpha", "assay": "Etanercept administration in AD patients by different routes", "type": "in vivo", "details": "compared to perispinal, epispinal or interspinal routes", "excerpt": "CNS Drugs 2009; 23 (9): 713-725. Richard C. Chou, Michael A. Kane, Shiva Gautam and Sanjay Ghirmire. Tumor Necrosis Factor Inhibition Reduces the Incidence of Alzheimer's disease in Rheumatoid Arthritis Patients. Abstracts of the American College of Rheumatology, Nov. 8, 2010, Atlanta Ga., Presentation No. 640). […] It is transported to the CNS through the CSF, not by direct spread by cervical vertebral venous system as perceived (Shantha T R and Evans J A: Arachnoid Villi in the Spinal Cord, and Their Relationship to Epidural Anesthesia. Anesthesiology 37:543-557, 1972)."}, "[14]": {"tested_on": "patients with depression associated with neurodegenerative diseases", "assay": "Intranasal ORE ketamine in patients with depression"}}, "note": "“Also recorded” adds a separate entry of the source."}
{"compound": "CNC(=O)Oc1ccc2c(c1)[C@]1(C)CCN(C)[C@@H]1N2C", "note": "[physostigmine]", "values": [{"measurement": "crossing of the blood brain barrier", "setting": "[1]", "result": "can cross the blood-brain barrier"}]}
{"compound": "O=[N+]([O-])c1ccc(O)c([N+](=O)[O-])c1", "note": "[2-4-dinitrophenol]", "values": [{"measurement": "complications", "setting": "[2]", "result": "without a single complication"}, {"measurement": "pathological changes, memory and cognition", "setting": "[2]; unpublished data 2004", "result": "reduces these pathological changes and improves the memory and cognition"}]}
{"compound": "N[C@@H](Cc1ccc(O)c(O)c1)C(=O)O", "note": "[levodopa]", "values": [{"measurement": "share that crosses BBB", "setting": "[1]", "result": "5-10%"}]}
{"compound": "insulin", "values": [{"measurement": "enhancement of the activity of methotrexate", "setting": "[3]", "result": "10,000 times"}, {"measurement": "time to increased insulin levels in cerebrospinal fluid (CSF)", "setting": "[4]; human studies, olfactory mucosal intranasal", "result": "≤ 60", "unit": "min"}, {"measurement": "effect on blood glucose", "setting": "[4]; normal adults and patients with Alzheimer's disease", "result": "without altering blood glucose"}, {"measurement": "recall from memory during the test", "setting": "[5]", "result": "better and more rapid recall from memory"}, {"measurement": "test scores", "setting": "[5]", "result": "scored higher in test scores"}, {"measurement": "time to binding to receptors in the hippocampus and the frontal cortex", "setting": "[6]", "result": "≤ 60", "unit": "min"}, {"measurement": "depression, memory and cognition", "setting": "[7]", "result": "reduced the depression, improved the memory, and increased cognition"}, {"measurement": "story recall and functional status", "setting": "[8]; 3-week daily intranasal insulin, adults with AD and aMCI", "result": "improved delayed story recall and caregiver-rated functional status"}, {"measurement": "memory, attention and functioning", "setting": "[8]; 21 days olfactory mucosal insulin, early stage AD or mild cognitive impairment, vs placebo", "result": "enhanced memory, attention, and functioning compared with placebo"}]}
{"compound": "C=C(c1ccc(C(=O)O)cc1)c1cc2c(cc1C)C(C)(C)CCC2(C)C", "note": "[bexarotene]", "values": [{"measurement": "ability to sense and respond to odors", "setting": "[9]; after bexarotene treatment", "result": "improvement in the ability to sense and respond to odors"}, {"measurement": "nest making behavior", "setting": "[9]; by 72 hours after the bexarotene treatment", "result": "began to use paper to make nests"}, {"measurement": "adverse effects of high dose usage", "setting": "[10]", "result": "hypertriglyceridemia, hypercholesterolemia and decreased high-density lipoprotein levels, as well as hypothyroidism"}]}
{"compound": "CNC(=O)Oc1ccc2c(c1)[C@]1(C)CCN(C)[C@@H]1N2C", "note": "[Physostigmine Salicylate]", "values": [{"measurement": "pH of aqueous solution", "setting": "[11]; 0.5% aqueous solution", "result": 5.8}, {"measurement": "solubility in water", "setting": "[11]", "result": "soluble in water"}]}
{"compound": "Etanercept", "values": [{"measurement": "cognitive abilities after perispinal administration", "setting": "[12]", "result": "improve the cognitive abilities of AD patients"}, {"measurement": "effectiveness of cervical epidural and intranasal ORE delivery", "setting": "[13]", "result": "much more effective"}]}
{"compound": "CNC1(c2ccccc2Cl)CCCCC1=O", "note": "(stereo not shown) [ketamine]", "values": [{"measurement": "pH of the sterile solution for injection", "setting": "[11]; equivalent of 50 mg ketamine base per milliliter", "result": "3.5 to 5.5"}, {"measurement": "crossing of the blood brain barrier", "setting": "[1]", "result": "easily crosses the BBB"}, {"measurement": "depressive condition in early cases", "setting": "[14]; early cases, especially in dementia", "result": "completely ameliorated the depressive condition"}, {"measurement": "depression", "setting": "[14]; intranasal delivery to the olfactory mucosa, neurodegenerative diseases, cancer, senility, Lyme disease and others", "result": "reduced or relieved the depression"}, {"measurement": "hallucinogenic or other ill effect", "setting": "[14]; micro doses, 500 micrograms through the ORE", "result": "no hallucinogenic or other ill effect; also recorded: no hallucinogenic effect"}]}
